Experimental data taken from ChEMBL document CHEMBL5291721, “A preclinical secondary pharmacology resource illuminates target-adverse drug reaction associations of marketed drugs” (Nat Commun, 2023).

Tests used:
[1] = target: T1, Peroxisome proliferator-activated receptor gamma (Homo sapiens, UniProt P37231); assay type: functional
T1 sequence (P37231 whole entry): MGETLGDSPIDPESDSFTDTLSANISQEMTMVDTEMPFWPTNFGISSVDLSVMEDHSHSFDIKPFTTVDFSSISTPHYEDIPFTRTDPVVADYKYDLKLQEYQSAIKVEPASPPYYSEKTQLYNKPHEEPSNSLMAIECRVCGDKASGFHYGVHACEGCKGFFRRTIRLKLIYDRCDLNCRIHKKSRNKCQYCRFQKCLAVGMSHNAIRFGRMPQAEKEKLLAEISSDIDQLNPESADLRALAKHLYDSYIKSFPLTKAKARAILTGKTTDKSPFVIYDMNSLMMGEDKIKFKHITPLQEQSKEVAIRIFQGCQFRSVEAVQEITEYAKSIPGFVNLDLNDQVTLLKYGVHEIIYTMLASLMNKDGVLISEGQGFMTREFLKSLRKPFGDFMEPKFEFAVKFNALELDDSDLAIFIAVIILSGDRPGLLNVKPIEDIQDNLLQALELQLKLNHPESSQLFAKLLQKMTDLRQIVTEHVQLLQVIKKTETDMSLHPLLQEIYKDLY

[2] = target: 5-hydroxytryptamine receptor 2A (Homo sapiens, UniProt P28223)
[3] = target: T2, Corticotropin-releasing factor receptor 2 (Homo sapiens, UniProt Q13324)
T2 sequence (Q13324 whole entry): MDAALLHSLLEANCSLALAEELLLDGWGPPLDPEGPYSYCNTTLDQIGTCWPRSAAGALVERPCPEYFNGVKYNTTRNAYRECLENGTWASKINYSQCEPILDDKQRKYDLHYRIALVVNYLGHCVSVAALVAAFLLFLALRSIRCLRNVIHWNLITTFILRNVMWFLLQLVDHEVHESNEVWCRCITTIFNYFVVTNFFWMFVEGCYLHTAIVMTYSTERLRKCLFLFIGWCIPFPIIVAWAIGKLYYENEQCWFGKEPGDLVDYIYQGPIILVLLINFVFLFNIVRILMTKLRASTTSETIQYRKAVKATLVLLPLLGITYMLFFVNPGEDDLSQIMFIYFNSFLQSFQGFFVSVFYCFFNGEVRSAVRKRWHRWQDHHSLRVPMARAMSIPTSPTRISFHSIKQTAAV

[4] = target: T3, Muscarinic acetylcholine receptor M2 (Homo sapiens, UniProt P08172)
T3 sequence (P08172 whole entry): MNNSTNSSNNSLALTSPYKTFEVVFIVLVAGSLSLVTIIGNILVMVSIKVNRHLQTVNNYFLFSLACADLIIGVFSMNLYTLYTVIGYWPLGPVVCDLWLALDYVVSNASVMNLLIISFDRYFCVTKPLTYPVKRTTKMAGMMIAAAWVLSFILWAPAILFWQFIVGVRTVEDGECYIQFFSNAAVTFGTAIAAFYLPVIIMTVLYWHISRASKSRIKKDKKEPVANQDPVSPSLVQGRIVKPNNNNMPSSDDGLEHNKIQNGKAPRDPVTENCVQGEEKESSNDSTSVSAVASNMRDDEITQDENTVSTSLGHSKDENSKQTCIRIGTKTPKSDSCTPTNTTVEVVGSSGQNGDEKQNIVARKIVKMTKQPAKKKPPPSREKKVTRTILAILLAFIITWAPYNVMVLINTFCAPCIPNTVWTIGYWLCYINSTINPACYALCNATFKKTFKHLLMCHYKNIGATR

[5] = target: T4, D(4) dopamine receptor (Homo sapiens, UniProt P21917)
T4 sequence (P21917 whole entry): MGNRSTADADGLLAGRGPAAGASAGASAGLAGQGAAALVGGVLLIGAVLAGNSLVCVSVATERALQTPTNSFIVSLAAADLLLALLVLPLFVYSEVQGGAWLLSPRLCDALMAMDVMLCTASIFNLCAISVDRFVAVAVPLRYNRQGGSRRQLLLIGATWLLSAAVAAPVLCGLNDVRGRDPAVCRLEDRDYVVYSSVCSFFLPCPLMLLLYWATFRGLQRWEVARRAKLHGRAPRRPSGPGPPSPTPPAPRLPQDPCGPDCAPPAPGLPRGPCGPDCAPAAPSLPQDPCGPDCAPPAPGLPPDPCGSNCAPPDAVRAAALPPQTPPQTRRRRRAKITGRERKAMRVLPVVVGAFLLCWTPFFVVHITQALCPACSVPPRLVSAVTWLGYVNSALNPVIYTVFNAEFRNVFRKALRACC

[6] = target: T5, Alpha-1A adrenergic receptor (Homo sapiens, UniProt P35348)
T5 sequence (P35348 whole entry): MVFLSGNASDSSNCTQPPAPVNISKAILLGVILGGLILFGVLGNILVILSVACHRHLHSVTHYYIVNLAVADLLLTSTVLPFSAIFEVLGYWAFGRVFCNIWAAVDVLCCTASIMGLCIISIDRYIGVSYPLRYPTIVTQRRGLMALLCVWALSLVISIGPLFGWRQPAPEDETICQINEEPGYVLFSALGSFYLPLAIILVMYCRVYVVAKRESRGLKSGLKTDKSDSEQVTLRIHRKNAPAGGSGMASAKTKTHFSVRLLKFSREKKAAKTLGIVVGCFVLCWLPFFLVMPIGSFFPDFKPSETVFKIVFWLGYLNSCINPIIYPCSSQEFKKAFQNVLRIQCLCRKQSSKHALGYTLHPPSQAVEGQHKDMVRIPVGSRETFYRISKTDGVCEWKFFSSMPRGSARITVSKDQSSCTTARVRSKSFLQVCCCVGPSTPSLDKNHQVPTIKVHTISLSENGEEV

[7] = target: T6, Type-2 angiotensin II receptor (Homo sapiens, UniProt P50052); assay type: functional
T6 sequence (P50052 whole entry): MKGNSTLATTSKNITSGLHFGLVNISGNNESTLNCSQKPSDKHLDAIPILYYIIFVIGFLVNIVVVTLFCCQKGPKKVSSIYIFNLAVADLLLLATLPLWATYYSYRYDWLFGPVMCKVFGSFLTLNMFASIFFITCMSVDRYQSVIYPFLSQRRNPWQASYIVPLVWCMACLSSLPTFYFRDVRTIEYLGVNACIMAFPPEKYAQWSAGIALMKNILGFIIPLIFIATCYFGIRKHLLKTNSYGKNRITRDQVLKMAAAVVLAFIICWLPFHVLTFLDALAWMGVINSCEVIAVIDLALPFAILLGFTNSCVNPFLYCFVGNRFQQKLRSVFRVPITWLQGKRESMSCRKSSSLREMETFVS

[8] = target: 5-hydroxytryptamine receptor 7 (Homo sapiens, UniProt P34969)
[9] = target: 5-hydroxytryptamine receptor 6 (Homo sapiens, UniProt P50406)
Also: assay procedure not described here.

Sequence of 5-hydroxytryptamine receptor 2A (P28223 whole entry): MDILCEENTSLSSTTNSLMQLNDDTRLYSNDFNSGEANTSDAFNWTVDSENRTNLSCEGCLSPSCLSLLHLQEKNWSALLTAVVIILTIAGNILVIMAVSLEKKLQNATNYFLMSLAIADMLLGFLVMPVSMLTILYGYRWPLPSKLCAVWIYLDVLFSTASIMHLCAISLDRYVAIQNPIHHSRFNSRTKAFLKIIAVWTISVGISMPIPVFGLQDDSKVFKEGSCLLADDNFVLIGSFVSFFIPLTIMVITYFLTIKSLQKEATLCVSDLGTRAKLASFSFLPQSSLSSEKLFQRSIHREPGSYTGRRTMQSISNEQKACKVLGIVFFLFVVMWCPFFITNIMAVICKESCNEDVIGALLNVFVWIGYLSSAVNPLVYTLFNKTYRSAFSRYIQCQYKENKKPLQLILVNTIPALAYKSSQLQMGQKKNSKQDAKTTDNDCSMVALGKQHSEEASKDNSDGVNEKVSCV
Sequence of 5-hydroxytryptamine receptor 6 (P50406 whole entry): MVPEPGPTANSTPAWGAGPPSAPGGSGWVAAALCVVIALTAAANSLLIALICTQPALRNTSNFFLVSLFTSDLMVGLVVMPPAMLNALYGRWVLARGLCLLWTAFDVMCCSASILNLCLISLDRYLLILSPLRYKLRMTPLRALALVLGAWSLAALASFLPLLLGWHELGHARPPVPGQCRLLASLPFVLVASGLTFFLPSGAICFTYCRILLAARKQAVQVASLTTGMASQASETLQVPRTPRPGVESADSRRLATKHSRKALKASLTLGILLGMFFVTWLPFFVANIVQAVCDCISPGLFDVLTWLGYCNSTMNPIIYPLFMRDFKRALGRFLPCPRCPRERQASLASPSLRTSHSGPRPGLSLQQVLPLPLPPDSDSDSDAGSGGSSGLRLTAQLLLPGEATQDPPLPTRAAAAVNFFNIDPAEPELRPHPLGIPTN
Sequence of 5-hydroxytryptamine receptor 7 (P34969 whole entry): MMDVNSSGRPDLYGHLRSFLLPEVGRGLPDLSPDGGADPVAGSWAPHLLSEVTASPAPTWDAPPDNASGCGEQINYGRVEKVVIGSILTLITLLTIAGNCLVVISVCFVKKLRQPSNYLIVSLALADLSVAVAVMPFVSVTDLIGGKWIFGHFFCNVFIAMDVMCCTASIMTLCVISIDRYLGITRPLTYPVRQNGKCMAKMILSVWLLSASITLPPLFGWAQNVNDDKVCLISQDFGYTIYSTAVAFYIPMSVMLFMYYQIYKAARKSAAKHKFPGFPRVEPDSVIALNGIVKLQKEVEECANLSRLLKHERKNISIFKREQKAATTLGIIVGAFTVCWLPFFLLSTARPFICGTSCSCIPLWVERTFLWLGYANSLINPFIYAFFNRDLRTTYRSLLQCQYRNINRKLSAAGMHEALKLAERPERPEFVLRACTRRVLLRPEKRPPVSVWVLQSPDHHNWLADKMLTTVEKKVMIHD

Structure (SMILES)	AC50 [2]	AC50 [3]	AC50 [4]	AC50 [5]	AC50 [6]	also measured
CC[C@@H](C(N)=O)N1CCCC1=O	–	–	–	–	–	AC50 [1]: > 30 µM
CCC(CC)(CC(=O)Nc1cccc(/C=C/c2nc(C3CCC3)cs2)c1)C(=O)O	–	–	–	–	–	AC50 [1]: > 30 µM
C=CCN1C[C@H](C(=O)N(CCCN(C)C)C(=O)NCC)C[C@@H]2c3cccc4[nH]cc(c34)C[C@H]21 [CABERGOLINE]	0.0077 µM	–	–	–	–	–
CN(C)CCC=C1c2ccccc2C=Cc2ccccc21 [CYCLOBENZAPRINE]	–	> 30 µM	–	–	–	–
CCOc1ccc(Cc2cc([C@@H]3O[C@H](CO)[C@@H](O)[C@H](O)[C@H]3O)ccc2Cl)cc1 [DAPAGLIFLOZIN]	–	–	> 10 µM	–	–	–
CC[C@H]1CN2CCc3cc(OC)c(OC)cc3[C@@H]2C[C@@H]1C[C@H]1NCCc2cc(OC)c(OC)cc21 [EMETINE]	–	–	–	–	–	AC50 [1]: > 30 µM
COc1ccc(C(=O)Nc2ccccc2CCC2CCCCN2C)cc1 (stereo not given) [ENCAINIDE]	0.103 µM	> 30 µM	> 10 µM	> 10 µM	> 10 µM	–
CCOC(=O)/C=C1\SC(N2CCCCC2)C(=O)N1C (stereo not given) [ETOZOLIN]	–	–	–	–	–	AC50 [7]: > 100 µM
O=[N+]([O-])O[C@@H]1CO[C@H]2[C@@H]1OC[C@@H]2O [ISOSORBIDE MONONITRATE]	> 10 µM	> 30 µM	> 10 µM	> 10 µM	> 10 µM	–
COc1cc2nc(N3CCN(C(=O)c4ccco4)CC3)nc(N)c2cc1OC [PRAZOSIN]	–	> 30 µM	13.2 µM	> 10 µM	–	AC50 [7]: > 100 µM
O=[N+]([O-])c1cn2c(n1)OC[C@@H](OCc1ccc(OC(F)(F)F)cc1)C2 [PRETOMANID]	> 10 µM	–	–	–	> 10 µM	AC50 [8]: > 10 µM; AC50 [9]: > 10 µM
CCN1CCCC1CNC(=O)c1cc(S(N)(=O)=O)ccc1OC (stereo not given) [SULPIRIDE]	–	–	–	–	–	AC50 [7]: > 100 µM
CCCCCNC(=N)N/N=C/c1c[nH]c2ccc(OC)cc12 [TEGASEROD]	0.174 µM	> 30 µM	–	0.657 µM	0.267 µM	AC50 [8]: 0.802 µM; AC50 [9]: 0.198 µM; AC50 [1]: > 30 µM
CCOc1ccccc1OCC1CNCCO1 (stereo not given) [VILOXAZINE]	–	> 30 µM	> 10 µM	> 10 µM	> 10 µM	AC50 [7]: > 100 µM; AC50 [8]: > 10 µM; AC50 [9]: > 10 µM
